# According to article PMC12110735 (Diseases, 2025):
# Entries after “also recorded” stand apart in the source; their conditions may differ. Read-outs that look alike come from different tables or passages of the source.
# How the values were obtained:
# [1] = system: HCC70 basal triple-negative breast cancer (TNBC) cell line; assay: Cytotoxicity, resazurin assay, 96 h, HCC70; format: cell-based; settings: for IC50: 96 h, read-out: HCC70 (IC50 and SD); for Selectivity Index (SI) HCC70: IC50 in MCF12A / IC50 in HCC70
# Procedure: (§1) The cytotoxicity and IC50 values of the isolated compounds were evaluated in three cell lines, namely, the HCC70 basal triple-negative breast cancer (TNBC) cell line (ATCC: CRL-2315), the hormone receptor-positive breast cancer MCF-7 cell line (ATCC: HTB-22) and the non-tumorigenic breast epithelial cell line MCF12A (ATCC: CRL-10782) using the resazurin assay. The cells were seeded at a density of 5000 cells/well in a 96-well plate and allowed to attach overnight at 37 °C and 9% CO2. The cells were then treated with DMSO as vehicle control (0.2% vM), paclitaxel (Sigma-Aldrich, St. Louis, USA) as a positive control (0.32 to 200 nm) and a six-point range concentration (0.32 to 200 μM) of the isolated pure compounds and incubated for 96 h at 37 DC in a humidified 9% CO2 incubator. Resazurin ([…]) was added to the cells, and the cells were incubated for 2–4 h at 37 °C in 9% CO2. Fluorescence readings were obtained on a Spectramax spectrophotometer (excitation and emission wavelength set to 560 nm and 590 nm, respectively). The experiment was performed in triplicate, and the data was analyzed using GraphPad Prism Inc., (Version 4, USA) with a half-maximal inhibitory concentration (IC50 values) determined by non-linear regression. A selectivity index (SI) was determined for each compound to determine its therapeutic significance in cancerous cells. It was calculated as follows: Selectivity index (SI) = IC50 of compound in MCF12A/IC50 of compound in cancer line
# (§2) SI function is a crucial metric for assessing a compound’s potential safety, with values below 1 indicating toxicity and those above 10 implying high selectivity for further investigation.
# [2] = system: hormone receptor-positive breast cancer MCF-7 cell line; assay: Cytotoxicity, resazurin assay, 96 h, MCF-7; format: cell-based; settings: for IC50 / cytotoxic activity against MCF-7 (in words): MCF-7 cells; for IC50: 96 h, read-out: MCF-7 (IC50 and SD); for Selectivity Index (SI) MCF-7: IC50 in MCF12A / IC50 in MCF-7
# Procedure: as §1, §2
# [3] = system: non-tumorigenic breast epithelial cell line MCF12A; assay: Cytotoxicity, resazurin assay, 96 h, MCF-12A; format: cell-based; settings: MCF-12A cells; for IC50: 96 h, read-out: MCF-12A (IC50 and SD)
# Procedure: as §1, §2
# NF-kappa B = settings: cited from earlier work
# [4] = system: leukemic cell line (L1210); set-up: method as in PMID 12612427; settings: cited from earlier work
# [5] = Homo sapiens, HCC70, 96 h, HCC70 cells, resazurin, triplicate
# [6] = Homo sapiens, MCF7, 96 h, resazurin, triplicate
# [7] = Homo sapiens, MCF-12A, resazurin, triplicate
# [8] = resazurin, triplicate, listed as 13R-Nepetaefolin (2)
compound,measurement,setting,value
"CC(=O)O[C@@H]1C[C@@]2(CO2)[C@](O)(CCc2ccoc2)[C@]23CCC[C@](C)(C(=O)OC2)[C@H]13 [Compound 4, nepetaefuran]",IC50,[1]; [5],73700 ± 1100 nM
same,Selectivity Index (SI) HCC70,[1]; listed as nepetaefuran (4),2.715
same,IC50,[2]; [6],> 200000 nM
same,cytotoxic activity against MCF-7 (in words),[2],no cytotoxic activity
same,IC50,[3]; [7],> 200000 nM
same,cytotoxic activity against MCF-12A (in words),[3],no cytotoxic activity
same,"anti-inflammatory activity, LPS pathway / NF-kappa B transactivation (in words)",NF-kappa B,suppression of the transactivation of NF-kappa B
"CC(=O)O[C@H]1C(=O)[C@@]2(C)[C@H]([C@H](OC(=O)c3ccccc3)[C@]3(O)C[C@H](OC(=O)[C@H](O)[C@@H](NC(=O)c4ccccc4)c4ccccc4)C(C)=C1C3(C)C)[C@]1(OC(C)=O)CO[C@@H]1C[C@@H]2O [Paclitaxel, paclitaxel, reference compound]",IC50,"[1]; Homo sapiens, HCC70, 96 h, HCC70 cells, positive control in nM",3.92 ± 1.03 nM
same,Selectivity Index (SI) HCC70,[1],4.12
same,IC50,"[2]; Homo sapiens, MCF7, 96 h, positive control in nM",2.41 ± 1.11 nM
same,Selectivity Index (SI) MCF-7,[2],6.71
same,IC50,"[3]; Homo sapiens, MCF-12A, positive control in nM",16.2 ± 1.08 nM
"CC(=O)O[C@@H]1C[C@@H](C)[C@](O)(CCc2ccoc2)[C@]23CCC[C@](C)(C(=O)OC2)[C@H]13 [Compound 3, dubiin]",IC50,[1]; [5],127900 ± 1230 nM
same,Selectivity Index (SI) HCC70,[1]; listed as dubiin (3),1.564
same,IC50,[2]; [6],> 200000 nM
same,cytotoxic activity against MCF-7 (in words),[2],non-toxic
same,IC50,[3]; [7],> 200000 nM
same,cytotoxic activity against MCF-12A (in words),[3],non-toxic
leonotinin [Compound 6],IC50,"[1]; HCC70 cells, resazurin, triplicate",94900 ± 1100 nM
same,Selectivity Index (SI) HCC70,[1]; listed as leonotinin (6),2.108
same,cytotoxic activity against MCF-7 (in words),[2],no cytotoxic activity
same,IC50,"[2]; resazurin, triplicate",> 200000 nM
same,cytotoxic activity against leukemic cell lines (in words),[4],cytotoxic activity
same,cytotoxic activity against MCF-12A (in words),[3],no cytotoxic activity
same,IC50,"[3]; resazurin, triplicate",> 200000 nM
same,"anti-inflammatory activity, LPS pathway / NF-kappa B transactivation (in words)",NF-kappa B,suppression of the transactivation of NF-kappa B
"CC(=O)O[C@@H]1C[C@@]2(CO2)[C@]2(CC[C@@]3(C=COC3)O2)[C@]23CCC[C@](C)(C(=O)OC2)[C@H]13 [Compound 1, 13S-nepetaefolin]",IC50,[1]; [5],24600 ± 1180 nM
same,Selectivity Index (SI) HCC70,[1]; listed as 13S-Nepetaefolin (1),1.08
same,Selectivity Index (SI) HCC70,[1]; listed as 13S-nepetaefolin (1),1.077
same,IC50,[2]; [6],> 200000 nM
same,Selectivity Index (SI) MCF-7,[2],<0.132
same,IC50,"[2]; resazurin, triplicate, listed as 13S-Nepetaefolin (1)",> 200000 nM
same,IC50,[3]; [7],26600 ± 1320 nM
"CC(=O)O[C@@H]1C[C@@]2(CO2)[C@]2(CC[C@]3(C=COC3)O2)[C@]23CCC[C@](C)(C(=O)OC2)[C@H]13 [Compound 2, nepetaefolin]",cytotoxic activity against HCC70 (in words),[1]; HCC70 cells,no activity; also recorded: no such effects
same,IC50,"[1]; HCC70 cells, resazurin, triplicate, listed as 13R-Nepetaefolin (2)",> 200000 nM
same,IC50,[1]; [5],> 200000 nM
same,IC50,[2]; [6],> 200000 nM
same,IC50,[2]; [8],> 200000 nM
same,IC50,[3]; [7],> 200000 nM
same,IC50,[3]; [8],> 200000 nM
"C[C@@]12CCC[C@]3(C)C(=O)O[C@H](C[C@@]4(CO4)[C@]1(O)CCc1ccoc1)[C@H]23 [Compound 5, leonotin]",cytotoxic activity against leukemic cell lines (in words),[4],cytotoxic activity
